*1 amine or outer side, *2 acyl side, *3 side chain or, on linkers, in order; H or OH if unused. Where a SMILES comes first, the peptide text is derived from it. Bridges are numbered along the chain shown (N, C = ends). [ ]: non-standard residue; d: D form. Trp(2-SH) = 2-mercapto-L-tryptophan, O=C([C@H](Cc1c(S[*:3])[nH]c2ccccc12)N[*:1])[*:2]; Trp(2-yl) = O=C([C@H](Cc1c([*:3])[nH]c2ccccc12)N[*:1])[*:2]; Leu(4R-OH,5-OH) = C[C@](O)(CO)C[C@H](N)C(=O)O; Leu(4,5-diOH) = 4,5-dihydroxy-L-leucine; cisHyp = O=C(O)[C@@H]1C[C@H](O)CN1
Assays:
[1] = system: POPB (prolyl oligopeptidase) purified from Conocybe albipes; test: cleavage of synthetic model toxin propeptides by purified POP, reverse phase HPLC and MS; type: biochemical; details: products confirmed by MS/MS
Description: The responsible enzyme was purified. Specifically, Conocybe mushrooms were freeze-dried, ground in buffer, and the extracts concentrated by ammonium sulfate precipitation. After desalting, the proteins were fractionated by anion exchange high-performance liquid chromatography (or high pressure liquid chromatography, HPLC).
Fractions containing peptides were assayed using Z-Gly-Pro-pNA and the model phallacidin substrate. Reaction products were separated by reverse phase HPLC (FIG. 20). In some experiments the HPLC eluant was analyzed by MS, while in other cases the peaks of UV absorption were collected and analyzed by MS in the inventors lab and the central LC/MS facility, in particular for long HPLC run times. […] PepSeq within the MassLynx program was used to determine peptide sequences. The peptides eluting from HPLC were monitored at 280 nm.
Confirmation of reaction product structures was accomplished by MS/MS.

human = details: cited from earlier work
[2] = parenteral: inhalation, intravenous or intramuscular injection; cited from earlier work
[3] = oral; cited from earlier work

Molecule	cleavage by purified POP at flanking Pro residues [1]	toxicity when administered parenterally [2]	absorption by the mammalian digestive tract [3]	also measured
ATRLPAWLVDCPCVGDD [synthetic phallacidin precursor]	cut			
MSDINATRLPAWLATCPCAGDD [synthetic phalloidin peptide, synthesized model peptide mimicking the phalloidin proprotein]	cuts			
cyclic (L-asparaginyl-4-hydroxy-L-prolyl-(R)-4,5-dihydroxy-L-isoleucyl-6-hydroxy-2-mercapto-L-tryptophylglycyl-L-isoleucylglycyl-L-cysteinyl), cyclic (4-8)-sulfide, (R)—S-oxide [α-amanitin]				fatal dose (human; fatal for at least 50% of people weighing approximately 100-110 kgs, amount one mature mushroom can contain): 10 to 12 mg; human LD50 (human; human): approximately 0.1 mg/kg
cyclic (L-alanyl-2-mercapto-L-tryptophyl-4,5-dihydroxy-L-leucyl-L-valyl-er-ythro-3-hydroxy-D-alpha-aspartyl-cysteinyl-cis-4-hydroxy-L-prolyl)cyclic (2-6)-sulfide (cyclo(A[Trp(2-SH)][Leu(4,5-diOH)]VDC[cisHyp]); thioether 2-6; not fully specified (residue 5)) [phallacidin]		poisonous	do not appear to be absorbed	
C[C@@H]1NC(=O)[C@H](C[C@@](C)(O)CO)NC(=O)[C@@H]2Cc3c([nH]c4ccccc34)SC[C@H](NC(=O)[C@@H]([C@H](C)O)NC1=O)C(=O)N1C[C@@H](O)C[C@H]1C(=O)N[C@@H](C)C(=O)N2 [phalloidin, cyclic (L-alanyl-D-threonyl-L-cysteinyl-cis-4-hydroxy-L-prolyl-L-alanyl-2-mercapto-L-tryptophyl-4,5-dihydroxy-L-leucyl), cyclic (3,6)-sulfide] (cyclo(A[dT]C[cisHyp]A[Trp(2-yl)][Leu(4R-OH,5-OH)]); thioether 3-6)		poisonous	do not appear to be absorbed	
ATRLPIWGIGCNPCVGDD [synthetic amanitin precursor]	cut			
